Data on 2 compounds can be found in patent US4308251A, “Controlled release formulations of orally-active medicaments” (Boots Pharmaceuticals, Inc., priority 1980, dated 1981).

The subject of data set [1] is patients with pain (chronic bursitis, knee injury). It is filed as in vivo, human. An excerpt: patient two is a housewife who suffered a painful right shoulder for two years. Consultants believed this condition was a result of chronic bursitis.
patient three is a person who is employed full time in an accounting department of a small company. […] While skating they fell, causing a partial tear of the medial collateral ligament and medial meniscus of the left knee. Support wrappings and acetaminophen were tried. […] This dosage regimen was maintained throughout the patient's convalescence.
patient one sustained a traumatic injury to the medial portion of their right knee during a basketball game.

A further data set deals with patients taking aspirin. Particulars: background statement; cited from earlier work.
The mark [2] stands for this setting: Patient No. 1, aspirin as regularly prescribed.

SMILES strings stand for the structures.

Turning to `CC(=O)Nc1ccc(O)cc1` [acetaminophen], the pain relief result in data set [1] (Patient No. 2, regular acetaminophen) is “only partial and temporary”.

On to `CC(=O)Oc1ccccc1C(=O)O` [aspirin, acetylsalicylic acid], for which, in data set [1] (setting [2]), the “effect on shoulder pain” value is recorded as “ineffective” and the side effects result is listed as “epigastric discomfort”. Further, in the data set with patients taking aspirin, the “patients considered treatment failures because of side effects” value is given as “Approximately sixty”.
